# Like-named read-outs stand apart in the source and are kept apart here.
# Columns and labels:
# [1] = system: wild-type E. coli ATCC 25922; experiment: microbe, parasite or virus in culture; assay type: cell-based, Escherichia coli
# Procedure, shortened: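 2-fold antibiotic × adjuvant checkerboard in MHB; inoculum 5 × 10^5 CFU/mL; 37°C, 18 h; OD590 read. FICI = FIC antibiotic + FIC adjuvant; ≤ 0.5 synergistic, 0.5 < x ≤ 4 additive, >4 antagonistic.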
# MDR A. baumannii 110193 = experiment: Time-kill assay; assay type: cell-based, Acinetobacter baumannii; conditions: 32 μg/mL novobiocin or 0.5 μg/mL rifampicin alone
# Procedure: (§1) Overnight-grown bacterial culture diluted in PBS to 0.5 McFarland turbidity was successively diluted 1:50 in lysogeny broth (LB). Cell cultures in the presence of dUSTBβP 3, novobiocin, or rifampicin, or combinations of adjuvant and antibiotic were incubated at 37°C. At designated intervals, 100 μL aliquots acquired from each culture tube were serially diluted in PBS and plated on LB agar plates.
# [2] = system: wild-type A. baumannii ATCC 17978; experiment: Time-kill assay; assay type: cell-based, Acinetobacter baumannii; conditions: 32 μg/mL novobiocin or 0.5 μg/mL rifampicin alone
# Procedure: as §1
# MDR K. pneumoniae = assay type: cell-based, Klebsiella pneumoniae; conditions: for MICantibiotic: antibiotic alone
# Procedure: (§2) The adjuvant activities of dUSTBβPs were evaluated using checkerboard assay as previously described ([Berry et al., 2019]). Overnight-grown bacterial culture diluted in saline to 0.5 McFarland turbidity was successively diluted 1:50 in MHB to achieve a final concentration of 5 × 10^5 CFU/mL for inoculation. The antibiotic and adjuvant were serially diluted 2-fold along the x-axis and y-axis, respectively, resulting in varying concentrations of both agents in each well. Subsequently, the 96-well plate was incubated with equal volumes of bacterial inoculum at 37°C for 18 h. Confirmation of turbidity was done using an EMax Plus microplate reader (Molecular Devices, United States) at a wavelength of 590 nm. Wells comprising MHB alone or in the presence of bacterial cells were used as negative or positive controls, respectively. Fractional inhibitory concentration index (FICI) is determined by adding the FICs of both antibiotic and adjuvant. The FIC of the antibiotic is calculated by dividing the MIC of the antibiotic in the presence of the adjuvant by the MIC of the antibiotic alone. Similarly, the FIC of the adjuvant is calculated by dividing the MIC of the adjuvant in the presence of the antibiotic by the MIC of the adjuvant alone. FICI ≤ 0.5, 0.5 < x ≤ 4, and >4 were deemed synergistic, additive, and antagonistic, respectively ([Meletiadis et al., 2010]).
# [3] = system: wild-type P. aeruginosa PAO1; experiment: microbe, parasite or virus in culture; assay type: cell-based, Pseudomonas aeruginosa; conditions: PAO1
# Procedure, shortened: (§3)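 Checkerboard in MHB with 5 × 10^5 CFU/mL inoculum, antibiotic and adjuvant each serially 2-fold diluted on crossed axes. Growth read as turbidity at 590 nm; FICI is the sum of each agent's MIC in combination divided by its MIC alone.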
# MDR E. cloacae = experiment: Checkerboard assay, MDR clinical isolates; assay type: cell-based, Enterobacter cloacae; conditions: antibiotic alone
# Procedure: as §2
# MDR E. coli = assay type: cell-based, Escherichia coli; conditions: antibiotic alone
# Procedure: as §2
# [4] = system: wild-type A. baumannii ATCC 17978; experiment: Checkerboard assay; assay type: cell-based, Acinetobacter baumannii; conditions: ATCC 17978
# Procedure, shortened: as §3
# [5] = system: MDR clinical isolates of A. baumannii; assay type: cell-based, Acinetobacter baumannii; conditions: for MICantibiotic: antibiotic alone
# Procedure: as §2
# [6] = system: MDR clinical isolates of P. aeruginosa; experiment: Checkerboard assay, MDR clinical isolates; assay type: cell-based, Pseudomonas aeruginosa; conditions: antibiotic alone
# Procedure: as §2
# in vitro [7] = assay type: cell-based; conditions: human
# Procedure: (§4) Cell viability assay was performed essentially as previously described ([[…] et al., 2019]). […] The cells were detached with trypsin and equal numbers of cells (8,000 cells in 50 μL) were dispersed into five rows of each column in 96-well plate; the remaining three rows of each column, designated as blanks, received 50 μL of the media without cells. After 24 h incubation, aliquots of 50 μL of dUSTBβP 3 at varying concentrations were added to each well and incubated for 48 h. […] Values from the wells without cells (blank wells) were subtracted from the corresponding sample wells and cell viability values of the treated samples relative to the vehicle controls set to 100% was determined. […] The results represent the mean ± SD of two independent experiments with five samples per experiment. […] Colistin was used as a negative control and doxorubicin, an anticancer drug, was used as a positive control.
# Cell viability assay = assay type: cell-based; conditions: human
# Procedure: as §4
# A. baumannii ATCC 17978 [8] = assay type: cell-based, Acinetobacter baumannii; conditions: not told
# Procedure: (§5) The ability of dUSTBβP 3 to permeabilize the OM of Acinetobacter baumannii ATCC 17978 and Escherichia coli ATCC 25922 was assessed using 1-N-phenylnaphthylamine (NPN) as previously described with minor modifications ([Yang et al., 2017]; [Akhoundsadegh et al., 2019]). Overnight grown culture was subcultured (1 in 100) in fresh LB broth and grown to a mid-logarithmic phase (OD600 = 0.4–0.6). […] NPN (10 μM final concentration) was added to a black 96-well plate containing the cell culture and incubated in 5 mM HEPES (pH 7.2) supplemented with 5 mM glucose and 5 μM carbonyl cyanide 3-chlorophenylhydrazone at room temperature for 30 min in darkness. Varying concentrations of compound were added onto the suspension, and the resulting change in NPN fluorescence was measured continuously (every 30 s) on a SpectraMax M2 microplate reader (Molecular Devices, United States) at an excitation wavelength of 350 nm and an emission wavelength of 420 nm. Cells with NPN and the OM permeabilizer PMBN served as a positive control, while cells with NPN alone served as a negative control. Three replicates were conducted, and the data were corrected for any background fluorescence.
# E. coli ATCC 25922 [9] = assay type: cell-based, Escherichia coli; conditions: not told
# Procedure: as §5
# [10] = ref Chen and Lu, 2020; cited from earlier work
# E. coli ATCC 25922 [11] = assay type: cell-based, Escherichia coli; conditions: ATCC 25922, 18 h
# Procedure: (§6) The in vitro antibacterial activities of dUSTBβPs were evaluated using microbroth dilution susceptibility test, in accordance with the Clinical and Laboratory Standards Institute (CLSI) guidelines ([Clinical and Laboratory Standards Institute, 2019]). Overnight-grown bacterial culture diluted in saline to 0.5 McFarland turbidity was successively diluted 1:50 in Mueller-Hinton broth (MHB) to achieve a final concentration of 5 × 10^5 colony forming units (CFU)/mL for inoculation. The agents were serially diluted 2-fold in MHB on a 96-well plate; mixed with bacterial inoculum of equal volumes, and incubated at 37°C for 18 h. Antibacterial activity was determined by the minimum inhibitory concentration (MIC), which is the lowest concentration of agent required for inhibition of visible bacterial growth in the form of turbidity. Confirmation of turbidity was done using an EMax Plus microplate reader (Molecular Devices, United States) at a wavelength of 590 nm. Wells comprising MHB alone or MHB inoculated with bacteria were used as negative or positive controls, respectively.
# in vitro [12] = conditions: human, plasma
# Procedure: Stability of dUSTBβP 3 was evaluated in human plasma. […] The supernatant was analyzed by HPLC-tandem mass spectrometry using selected reaction monitoring. The % compound remaining was determined by comparing peak areas at different time points to time zero. Assuming first-order kinetics, the half-life was extrapolated from the slope of the initial linear range of the logarithmic curve of compound remaining over time. Experiments were performed in duplicates, and the reference compounds include propantheline and propoxycaine.
# A. baumannii ATCC 17978 [13] = assay type: cell-based, Acinetobacter baumannii; conditions: ATCC 17978, 18 h
# Procedure: as §6
# in vitro [14] = assay type: cell-based; conditions: human; remark: listed apart in the source
# Procedure: The degree of hemolysis induced by dUSTBβPs was determined by the amount of hemoglobin released from human erythrocytes upon incubation. Fresh human blood supplied by a commercial vendor was obtained from normal healthy volunteers following informed consent. The agent of interest was serially diluted in vehicle consisting of phosphate-buffered saline (PBS), saline, 5% glucose, or equivalents. The samples were incubated with gentle mixing at 37°C for 45 min and were subsequently centrifuged. The supernatant (plasma layer) was removed and centrifuged once more to completely pellet the cells. The plasma layer was diluted with Drabkin’s reagent and analyzed at a wavelength of 540 nm. Experiments were conducted in triplicates, and a calibration curve prepared by diluting blood (after addition of vehicle) was used to quantitate heme release. The vehicle or Triton X-100 were used as negative or positive controls, respectively.
# P. aeruginosa PAO1 = assay type: cell-based, Pseudomonas aeruginosa; conditions: PAO1, 18 h
# Procedure: as §6
# [15] = antibiotic with dUSTBβP 3 at 8 μg/mL
compound,measurement,setting,value
CO[C@H]1/C=C/O[C@@]2(C)Oc3c(C)c(O)c4c(O)c(c(/C=N/N5CCN(C)CC5)c(O)c4c3C2=O)NC(=O)/C(C)=C\C=C\[C@H](C)[C@H](O)[C@@H](C)[C@@H](O)[C@@H](C)[C@H](OC(C)=O)[C@@H]1C [Rifampicin],MICantibiotic,"[1]; ATCC 25922, antibiotic alone",4 µg/mL
same,MICcombo,"[1]; ATCC 25922, antibiotic with dUSTBβP 3 at 8 μg/mL",0.008 µg/mL
same,MIC,"[1]; Escherichia coli, ATCC25922, 18 h, ATCC 25922, antibiotic alone (Supplementary Table 7), read-out: MICantibiotic",4 µg/mL
same,Time-kill outcome,MDR A. baumannii 110193,Bacteriostatic
same,Time-kill outcome,[2],Bacteriostatic
same,MICantibiotic,MDR K. pneumoniae; 113250,32 µg/mL
same,MICantibiotic,MDR K. pneumoniae; 113254,8 µg/mL
same,MICantibiotic,MDR K. pneumoniae; 116381,> 256 µg/mL
same,MICantibiotic,"MDR K. pneumoniae; 116381, listed as rifampicin",512 µg/mL
same,MICantibiotic,[3]; antibiotic alone,16 µg/mL
same,MICcombo,[3]; [15],0.25 µg/mL
same,MIC,"[3]; Pseudomonas aeruginosa, 18 h, antibiotic alone (Supplementary Table 7), read-out: MICantibiotic",16 µg/mL
same,MICantibiotic,MDR E. cloacae; 117029,8 µg/mL
same,MICantibiotic,MDR E. cloacae; 118564,8 µg/mL
same,MICantibiotic,MDR E. cloacae; 121187,2 µg/mL
same,MICantibiotic,MDR E. coli; 94393,8 µg/mL
same,MICantibiotic,MDR E. coli; 94474,8 µg/mL
same,MICantibiotic,MDR E. coli; 107115,32 µg/mL
same,MICantibiotic,[4]; antibiotic alone,2 µg/mL
same,MICcombo,[4]; [15],0.008 µg/mL
same,MIC,"[4]; Acinetobacter baumannii, ATCC17978, 18 h, antibiotic alone (Supplementary Table 7), read-out: MICantibiotic",2 µg/mL
same,MICantibiotic,[5]; 92247,2 µg/mL
same,MICantibiotic,[5]; 110193,1 µg/mL
same,MICantibiotic,[5]; AB027,1 µg/mL
same,MICantibiotic,[5]; AB031,1 µg/mL
same,MICantibiotic,[5]; LAC-4,0.5 µg/mL
same,MICantibiotic,[6]; PA259-96196,16 µg/mL
same,MICantibiotic,[6]; PA262-101856,512 µg/mL
same,MICantibiotic,[6]; PA264-104354,16 µg/mL
same,MICantibiotic,[6]; PA91433,16 µg/mL
same,MICantibiotic,[6]; PA114228,16 µg/mL
COc1cccc2c1C(=O)c1c(O)c3c(c(O)c1C2=O)C[C@@](O)(C(=O)CO)C[C@@H]3O[C@H]1C[C@H](N)[C@H](O)[C@H](C)O1 [doxorubicin],"viability at 48 h, 1 µM",in vitro [7],16.6 ± 2.3%
same,CC50 at 48 h,Cell viability assay,0.032 µM
polymyxin B nonapeptide [PMBN],"OM permeabilization, NPN fluorescence",A. baumannii ATCC 17978 [8],increased fluorescence of NPN
same,"OM permeabilization, NPN fluorescence",E. coli ATCC 25922 [9],increased fluorescence of NPN
CCCCCCCCCCNCCN[C@@]1(C)C[C@H](O[C@H]2[C@H](Oc3c4cc5cc3Oc3ccc(cc3Cl)[C@@H](O)[C@@H](NC(=O)[C@@H](CC(C)C)NC)C(=O)N[C@@H](CC(N)=O)C(=O)N[C@H]5C(=O)N[C@H]3C(=O)N[C@H](C(=O)N[C@H](C(=O)O)c5cc(O)c(CNCP(=O)(O)O)c(O)c5-c5cc3ccc5O)[C@H](O)c3ccc(c(Cl)c3)O4)O[C@H](CO)[C@@H](O)[C@@H]2O)O[C@@H](C)[C@H]1O [telavancin],In vivo elimination half-life,[10],8 h
CCCCCCCC(=O)NC(CCCNC(=N)N)CC(=O)NCCCN(CCCNC(=O)CC(CCCNC(=N)N)NC(=O)CCCCCCC)CC(=O)NC(CCCNC(=N)N)CC(N)=O (centres unmarked) [dUSTBβP 3],MIC,E. coli ATCC 25922 [11],128 µg/mL
same,"viability at 48 h, 125 µM",in vitro [7],86.4 ± 8.7%
same,half-life at 1 μM,in vitro [12],10.4 ± 3.7 h
same,"remaining at 2 h, 1 μM",in vitro [12],86.8 ± 3.7%
same,MIC,A. baumannii ATCC 17978 [13],>128 µg/mL
same,"hemolysis at 45 min, 1.5625 µM",in vitro [14],3.23 ± 0.08%
same,"hemolysis at 45 min, 3.125 µM",in vitro [14],3.32 ± 0.16%
same,"hemolysis at 45 min, 6.25 µM",in vitro [14],3.18 ± 0.05%
same,"hemolysis at 45 min, 12.5 µM",in vitro [14],3.28 ± 0.12%
same,"hemolysis at 45 min, 25 µM",in vitro [14],3.35 ± 0.09%
same,"hemolysis at 45 min, 50 µM",in vitro [14],3.43 ± 0.49%
same,"hemolysis at 45 min, 100 µM",in vitro [14],4.17 ± 1.29%
same,"hemolysis at 45 min, 200 µM",in vitro [14],4.59 ± 2.42%
same,FICI,"[1]; ATCC 25922, 18 h",0.064
same,CC50 at 48 h,Cell viability assay,101 µM
same,"OM permeabilization, NPN fluorescence",A. baumannii ATCC 17978 [8],dose-dependently permeabilizes the OM
same,FICI,"MDR K. pneumoniae; MDR, 18 h",< 0.156
same,"OM permeabilization, NPN fluorescence",E. coli ATCC 25922 [9],dose-dependently permeabilizes the OM
same,MIC,P. aeruginosa PAO1,128 µg/mL
same,MIC of compound alone,"[5]; MDR clinical isolates of, 18 h",16 µg/mL

# From publication PMC8733726, “Dioctanoyl Ultrashort Tetrabasic β-Peptides Sensitize Multidrug-Resistant Gram-Negative Bacteria to Novobiocin and Rifampicin” (Frontiers in Microbiology, 2021)
